# In publication PMC10318456, “Selective inhibitors of the PSEN1–gamma-secretase complex” (The Journal of Biological Chemistry, 2023):
# Where two headings read alike, the source gives them in different places.
# Tests used:
# [1] = system: PSEN1 versus PSEN2 γ-secretase complexes; assay: Comparison of the four MEF cell lines: selectivity between γ-secretase complexes (IC50 ratios); format: cell-based, human; details: for potency toward all four γ-secretase activities / selectivity toward the different γ-secretase complexes: four MEF cell lines; for potency toward all four γ-secretase activities: in words
# From the text: (§1) Mouse embryonic fibroblast (MEF) cells deficient for the Psen and Aph1 genes (Psen1/2^−/−, Aph1ABC^−/−) were reconstituted with human PSEN1 or PSEN2 and with human APH1A or APH1B to generate four independent cell lines, each constitutively expressing exclusively one type of γ-secretase complex (Fig. S1A) ([19]). A human APP-C99-GFP reporter was introduced to enable the measurement of Aβ peptides in the conditioned media of the cells to monitor γ-secretase activity. The assay was established in a 96-well format.
# GraphPad Prism 7 software was used to generate inhibition fitting curves (four-parameter logistic equation, nonlinear regression) and to determine IC50 and 95% CI values (Fig. S2). Selectivity values (IC50 ratios of PSEN1 versus PSEN2) above 10 are highlighted in red.
# (§2) The number of plated cells and incubation times were determined in respect to linearity of Aβ peptide secretion, the dynamic range of Aβ peptide quantification in the medium, and sensitivity to dimethylsulfoxide (DMSO). […] MEF cells were plated in DMEM F12 supplemented with 10% FCS at 10,000 cells per well in 96-well clear bottom plates in the late afternoon and cultured for 16 h at 37 °C, 5% CO2. In the morning of the second day, the medium was replaced with 60 μl of DMEM/F12 supplemented with 2% FCS, and GSI or DMSO (controls) were added. Compounds were tested in serial dilutions with concentrations ranging from […] to 0.1 nM with 3-fold changes. The final concentration of DMSO in all wells was 0.2%. Plates were put in the incubator again at 37 °C, 5% CO2. After 8 h, the culture media were collected, and 30 μl was used to measure Aβ40 peptides. The cell viability was assessed using the CellTiter-Glo Luminescent assay (Promega) that measures ATP production. All screens were performed at one site, and reported IC50 values throughout the manuscript are from this site (Beerse) unless otherwise indicated.
# GraphPad Prism 7 software (https://www.graphpad.com) was used to generate inhibition fitting curves (four-parameter logistic equation, nonlinear regression) and to determine IC50 values and 95% CI.
# [2] = target: T1, PSEN1-APH1B γ-secretase complex (Homo sapiens, UniProt P49768); assay: Aβ40 secretion by MEF cell line expressing only PSEN1-APH1B γ-secretase (APP-C99-GFP reporter); format: cell-based
# T1 construct: expressed in transfected cells; host or cells: Psen1/2 double KO/Aph1ABC triple KO MEFs, pMSCV retroviral PSEN-IRES-APH1
# From the text: as §1
# (§3) Conditional Psen1/2 double KO mice were crossed with conditional Aph1ABC triple KO mice ([29], [52], [58], [59]). At embryonic day 7.5, embryos were dissected and dissociated, and cells were plated in the presence of Dulbecco’s modified Eagle’s medium (DMEM)/F12 50% fetal calf serum (FCS) (Invitrogen). Primary MEFs were immortalized by transduction with LargeT antigen. Psen1/2 double KO/Aph1ABC triple KO MEFs were generated by transduction with a Cre-GFP–expressing adenoviral vector, and GFP-positive MEFs were sorted by fluorescence-activated cell sorting analysis. Psen1/2 Aph1ABC-deficient MEFs were maintained in DMEM/f12 10% FCS. To rescue γ-secretase expression, Psen1/2 double KO/Aph1ABC triple KO MEFs were transduced using Murine Stem Cell Virus retroviral vector system (pMSCV) viral vectors (Clontech) containing the human coding sequences of the different PSEN and APH1 homologs and the zeocin selection marker. An Internal Ribosome Entry Site sequence was cloned between the coding sequences for PSEN and APH1 to ensure co-expression of both proteins. Stable transfected cell lines were selected using 500-μg/ml zeocin (Invitrogen). Four different combinations were made: PSEN1 and APH1AL, PSEN1 and APH1B, PSEN2 and APH1AL, and PSEN2 and APH1B. These cell lines were transduced with pMSCV viral vectors (Clontech) expressing APP-C99-GFP-puromycin. After puromycin selection (5 μg/ml), GFP-positive cells were selected through FACS sorting. For the alanine mutagenesis experiment, pMSCV PSEN1-APH1A viral vectors were generated by using a long PCR-based QuikChange strategy (Stratagene). Stable cell lines without clonal selection were generated for each mutant as described above. All cell lines were regularly tested for the absence of mycoplasma and used for maximum 20 passages in culture.
# as §2
# Standard 96-well SECTOR plates (MSD) were coated with 1.5 μg/ml anti-Aβ JRFcAβ40/28 capture antibody in a final volume of 50 μl of PBS 0.05% Tween 20.
# [3] = system: PSEN1–γ-secretase complex compared to PSEN2–γ-secretase complexes; details: reported; cited from earlier work
# [4] = target: T2, PSEN2-APH1B γ-secretase complex (Homo sapiens, UniProt P49810); assay: Aβ40 secretion by MEF cell line expressing only PSEN2-APH1B γ-secretase (APP-C99-GFP reporter); format: cell-based; details: only the 95% CI is given
# T2 construct: expressed in transfected cells; host or cells: Psen1/2 double KO/Aph1ABC triple KO MEFs, pMSCV retroviral PSEN-IRES-APH1
# From the text: as §1
# Conditional Psen1/2 double KO mice were crossed with conditional Aph1ABC triple KO mice ([29], [52], [58], [59]). At embryonic day 7.5, embryos were dissected and dissociated, and cells were plated in the presence of Dulbecco’s modified Eagle’s medium (DMEM)/F12 50% fetal calf serum (FCS) (Invitrogen). […] Psen1/2 double KO/Aph1ABC triple KO MEFs were generated by transduction with a Cre-GFP–expressing adenoviral vector, and GFP-positive MEFs were sorted by fluorescence-activated cell sorting analysis. […]
# (§4) The number of plated cells and incubation times were determined in respect to linearity of Aβ peptide secretion, the dynamic range of Aβ peptide quantification in the medium, and sensitivity to dimethylsulfoxide (DMSO). […] The cell viability was assessed using the CellTiter-Glo Luminescent assay (Promega) that measures ATP production. […]
# [5] = target: T3, PSEN1-APH1A γ-secretase complex (Homo sapiens, UniProt P49768); assay: Aβ40 secretion by MEF cell line expressing only PSEN1-APH1A γ-secretase (APP-C99-GFP reporter); format: cell-based; details: only the 95% CI is given, read-out: 95% CI of IC50
# T3 construct: expressed in transfected cells; host or cells: Psen1/2 double KO/Aph1ABC triple KO MEFs, pMSCV retroviral PSEN-IRES-APH1
# From the text: as §1, §3, §4
# [6] = target: T4, PSEN2-APH1A γ-secretase complex (Homo sapiens, UniProt P49810); assay: Aβ40 secretion by MEF cell line expressing only PSEN2-APH1A γ-secretase (APP-C99-GFP reporter); format: cell-based; details: only the 95% CI is given
# T4 construct: expressed in transfected cells; host or cells: Psen1/2 double KO/Aph1ABC triple KO MEFs, pMSCV retroviral PSEN-IRES-APH1
# From the text: as §1
# as §3, with “Four different combinations were made: PSEN1 and APH1AL, PSEN1 and APH1B, PSEN2 and APH1AL, and PSEN2 and APH1B. These cell lines were transduced with pMSCV viral vectors (Clontech) expressing APP-C99-GFP-puromycin. After puromycin selection (5 μg/ml), GFP-positive cells were selected through FACS sorting. For the alanine mutagenesis experiment, pMSCV PSEN1-APH1A viral vectors were generated by using a long PCR-based QuikChange strategy (Stratagene). Stable cell lines without clonal selection were generated for each mutant as described above. All cell lines were regularly tested for the absence of mycoplasma and used for maximum 20 passages in culture.” left out
# as §4
smiles,measurement,setting,value
CC(C)(C(=O)NCC(F)(F)C(F)(F)F)C(=O)N[C@@H]1C(=O)Nc2ccccc2-c2ccccc21 [RO-4929097],potency toward all four γ-secretase activities,[1],low nanomolar potencies
C[C@H](NC(=O)[C@@H](O)c1cc(F)cc(F)c1)C(=O)N[C@@H]1C(=O)N(C)c2ccccc2-c2ccccc21 [LY411575],selectivity toward the different γ-secretase complexes,[1],< 10 fold
same,potency toward all four γ-secretase activities,[1],low nanomolar potencies
same,selectivity toward the different γ-secretase complexes,[1]; listed as LY-411575,without convincing selectivity
CC(C)[C@H](O)C(=O)N[C@@H](C)C(=O)N[C@@H]1C(=O)N(C)CCc2ccccc21 [semagacestat],IC50,"[2]; 8 h, Beerse site unless otherwise indicated, read-out: IC50, Aβ40 peptides",24.9 nM
same,selectivity for PSEN1 complexes versus PSEN2 complexes,"[1]; IC50 ratios of PSEN1 versus PSEN2, MEF cell lines",6–13 fold
same,selectivity toward the different γ-secretase complexes,[1],< 10 fold
CS(=O)(=O)CC[C@@H]1OCC[C@@]2(S(=O)(=O)c3ccc(Cl)cc3)c3c(F)ccc(F)c3OC[C@@H]12 [SCH-900229],selectivity PSEN1 versus PSEN2,[3],20 fold
"CC(C)C[C@H](NC(=O)[C@H](Cc1ccccc1)C[C@@H](O)[C@H](Cc1ccccc1)NC(=O)OC(C)(C)C)C(=O)N[C@@H](Cc1ccccc1)C(N)=O [L-685,458]",IC50,"[2]; only the 95% CI is given, read-out: 95% CI of IC50",597 to 3860 nM
same,IC50,[4],2220 to 5740 nM
same,IC50,[5],1210 to 2370 nM
same,IC50,[6],992 to 2600 nM
